We go through 35 molecules from patent publication US20210254056A1, “IDENTIFICATION AND TARGETED MODULATION OF GENE SIGNALING NETWORKS” (CAMP4 THERAPEUTICS CORPORATION, priority 2017, published 2021).

Where two headings read alike, the source gives them in different places.

The test system of one assay is hepatocytes. As to the kind of experiment: RNA-seq of hepatocytes stimulated with the compounds of Table 68.
In assay [1] the test system is Early erythroblast progenitor cells derived from cord blood. As to the kind of experiment: Reversion of immortality after doxycycline withdrawal (qRT-PCR, cell size). Format: cell-based, human.
Where [2] appears, read: hepatocytes stimulated with the compound, RNA-seq, significance: FPKM≥1, q-value≤0.05, log 2 fold change≥1.5.
[3] abbreviates: sample D2-Dox− (2 days after doxycycline withdrawn).
Where [4] appears, read: sample D3-Dox− (3 days after doxycycline withdrawn).
Setting [5] is: sample D4-Dox− (4 days after doxycycline withdrawn).
The mark [6] stands for this setting: sample D5-Dox− (5 days after doxycycline withdrawn).
Where [7] appears, read: sample D2-dox+ (day 2, on doxycycline; reference).
The mark [8] stands for this setting: sample D6-dox− (6 days after doxycycline withdrawn).

Take `COc1cccc(-n2c(=O)[nH]c3cc(Cl)n(-c4ccc(-c5cccc(OC)c5O)cc4)c3c2=O)c1` [GSK621]: in the assay on hepatocytes, the “# of genes having significantly altered expression” value is on record as 5.
In the case of `CCOC(=O)c1cncn1[C@H](C)c1ccccc1` [Etomidate], the “# of genes having significantly altered expression” value in the assay on hepatocytes was 2.
On to `CCCCCCCCCCCC(=O)OC[C@H](COP(=O)([O-])OCC[N+](C)(C)C)OC(=O)CCCCCCCCCCC` [DLPC], for which the “# of genes having significantly altered expression” value in the assay with hepatocytes turned out to be 4.
Consider `COCCOc1cnc2ccn([C@H](C)c3nnc4c(F)cc(-c5cnn(C)c5)cn34)c(=O)c2c1` [AMG337], for which, in the assay on hepatocytes (setting [2]), the “# of genes having significantly altered expression” value came out at 3.
In the case of Pifithrin-μ, in the assay on hepatocytes, the “# of genes having significantly altered expression” value was 5377.
On to `Oc1c2ccccc2c2c3c(cccc13)N=N2` [SP600125], for which the “# of genes having significantly altered expression” value in the assay with hepatocytes (setting [2]) is recorded as 193.
As to `CN(C)C/C=C/C(=O)Nc1cc2c(Nc3ccc(F)c(Cl)c3)ncnc2cc1O[C@H]1CCOC1` [Afatinib], the “# of genes having significantly altered expression” value in the assay on hepatocytes (setting [2]) stood at 2010.
As to `C=C1/C(=C\C=C2/CCC[C@]3(C)[C@@H]([C@H](C)/C=C/C=C/C(O)(CC)CC)CC[C@@H]23)C[C@@H](O)C[C@@H]1O` [EB1089], the “# of genes having significantly altered expression” value in the assay on hepatocytes (setting [2]) is listed as 68.
In the case of `Cc1ccc(NC(=O)c2ccc(CN3CCN(C)CC3)cc2)cc1Nc1nc(-c2cccnc2)cs1` [Mastinib], in the assay with hepatocytes (hepatocytes stimulated with the compound, RNA-seq, […]), the “# of genes having significantly altered expression” value turned out to be 151.
Turning to `C[C@H]1c2cccc(O)c2C(=O)C2=C(O)[C@]3(O)C(=O)C(C(N)=O)=C(O)[C@@H](N(C)C)[C@@H]3[C@@H](O)[C@@H]21` [Dox], in assay [1] (setting [3]), the “RQ of ALAS2” value is 2.98, the “RQ of BCLXL” value is 0.29, the “RQ of HBB” value turned out to be 7.81 and the “RQ of MYC” value stood at 0.04. Also, in assay [1] (setting [3]), the “RQ of RPS19” value is recorded as 0.28, the “RQ of p21” value amounted to 2.31 and the “RQ of p53” value came to 0.40. In addition, in assay [1] (setting [4]), the “RQ of ALAS2” value worked out at 1.44, the “RQ of BCLXL” value was found to be 0.11, the “RQ of HBB” value came out at 5.57 and the “RQ of MYC” value came to 0.03. Also, in assay [1] (setting [4]), the “RQ of RPS19” value came out at 0.21, the “RQ of p21” value is listed as 1.05 and the “RQ of p53” value is 0.21. Moreover, in assay [1] (setting [5]), the “RQ of ALAS2” value stood at 0.94, the “RQ of BCLXL” value stood at 0.07, the “RQ of HBB” value was 4.89 and the “RQ of MYC” value amounted to 0.06. Besides, in assay [1] (setting [5]), the “RQ of RPS19” value came out at 0.28, the “RQ of p21” value stood at 2.03 and the “RQ of p53” value amounted to 0.22. In addition, in assay [1] (setting [6]), the “RQ of ALAS2” value is listed as 0.40, the “RQ of BCLXL” value was 0.04, the “RQ of HBB” value is 2.13 and the “RQ of MYC” value came to 0.06. For the same molecule, in assay [1] (setting [6]), the “RQ of RPS19” value worked out at 0.27, the “RQ of p21” value was 1.61 and the “RQ of p53” value came to 0.20.
For `C[C@@H](Oc1cc(-c2cnn(C3CCNCC3)c2)cnc1N)c1c(Cl)ccc(F)c1Cl` [Crizotinib], in the assay with hepatocytes (setting [2]), the “# of genes having significantly altered expression” value was 3265.
Take `Cc1cc(C(C)Nc2ccccc2)c2nc(N3CCOCC3)cc(=O)n2c1` (stereo not drawn) [TGX-221]: the “# of genes having significantly altered expression” value with hepatocytes was 1.
For the molecule `CNC(=O)c1cc(Oc2ccc(NC(=O)Nc3ccc(Cl)c(C(F)(F)F)c3)c(F)c2)ccn1` [Regorafenib], the “# of genes having significantly altered expression” value in the assay with hepatocytes (setting [2]) is on record as 10.
Regarding `C[C@@]1(C(=O)Nc2ccc(F)nc2)CCCN1c1nc(Nc2cc(C3CC3)n[nH]2)c2cccn2n1` [BMS-754807], the “# of genes having significantly altered expression” value in the assay on hepatocytes turned out to be 302.
On to `[Cl][Co][Cl]` [Cobalt chloride], for which the “# of genes having significantly altered expression” value in the assay with hepatocytes is 1275.
Turning to `Cc1ccccc1N=Nc1ccc(NC(=O)c2ccnn2C)c(C)c1` [CH223191], the “# of genes having significantly altered expression” value with hepatocytes was found to be 198.
For `C[C@H]1c2cccc(O)c2C(=O)C2=C(O)[C@]3(O)C(=O)C(C(N)=O)=C(O)[C@@H](N(C)C)[C@@H]3[C@@H](O)[C@@H]21` [dox], in assay [1] (setting [7]), the “RQ of ALAS2” value worked out at 1.00, the “RQ of BCLXL” value is listed as 1.00, the “RQ of HBB” value was 1.00 and the “RQ of MYC” value is recorded as 1.00. Moreover, in assay [1] (setting [7]), the “RQ of p21” value stood at 1.00 and the “RQ of p53” value was determined as 1.00. The “RQ (relative quantification of expression) of RPS19” value in assay [1] (sample D2-dox+ (day 2, on doxycycline; reference), B-ACTIN control) amounted to 1.00. In assay [1] (setting [8]), the “RQ of ALAS2” value stood at 0.17, the “RQ of BCLXL” value stood at 0.03, the “RQ of HBB” value came to 0.57 and the “RQ of MYC” value turned out to be 0.03. Besides, in assay [1] (setting [8]), the “RQ of RPS19” value worked out at 0.21, the “RQ of p21” value is 1.14 and the “RQ of p53” value is 0.16.
With `Cn1cc(-c2ccc3nnc(C(F)(F)c4ccc5ncccc5c4)n3n2)cn1` [JNJ-38877605], in the assay with hepatocytes, the “# of genes having significantly altered expression” value was 64.
For `COc1cc(Nc2c(C#N)cnc3cc(OCCCN4CCN(C)CC4)c(OC)cc23)c(Cl)cc1Cl` [Bosutinib], the “# of genes having significantly altered expression” value in the assay with hepatocytes (setting [2]) is listed as 2184.
With `Cc1nc(Nc2ncc(C(=O)Nc3c(C)cccc3Cl)s2)cc(N2CCN(CCO)CC2)n1` [Dasatinib], in the assay with hepatocytes (setting [2]), the “# of genes having significantly altered expression” value is on record as 2970.
The same measure, in the same setting: as for `C[C@@H]1CC(=O)c2c(ccc3c2C(=O)c2cccc(O)c2C3=O)C1` [STA-21], the figure is 6; as for `Cc1[nH]c(/C=C2\C(=O)Nc3ccc(S(=O)(=O)Cc4c(Cl)cccc4Cl)cc32)c(C)c1C(=O)N1CCC[C@@H]1CN1CCCC1` [PHA-665752], 1767.
Take `O=C1CCC(N2C(=O)c3ccccc3C2=O)C(=O)N1` (stereo not drawn) [Thalidomide]: in the assay on hepatocytes (setting [2]), the “# of genes having significantly altered expression” value came out at 3092.
The same measure, in the same setting: with `C=C(c1ccc(C(=O)O)cc1)c1cc2c(cc1C)C(C)(C)CCC2(C)C` [Bexarotene] the figure was 267; with `CNC(=O)c1ccccc1Sc1ccc2c(/C=C/c3ccccn3)n[nH]c2c1` [Axitinib], 5.
On the same count and under the same terms, with `CC1(C)CCC(c2ccc(Cl)cc2)=C(CN2CCN(c3ccc(C(=O)NS(=O)(=O)c4ccc(N[C@H](CCN5CCOCC5)CSc5ccccc5)c(S(=O)(=O)C(F)(F)F)c4)cc3)CC2)C1` [ABT-263] the figure was 1.
On to Varenicline tartrate, for which the “# of genes having significantly altered expression” value in the assay on hepatocytes turned out to be 7.
As for `C=C1/C(=C\C=C2/CCC[C@]3(C)[C@@H]([C@H](C)CCCC(C)(C)O)CC[C@@H]23)C[C@@H](O)C[C@@H]1O` [Calcitrol], the “# of genes having significantly altered expression” value in the assay on hepatocytes (setting [2]) turned out to be 1950.
As for `COc1cc2c(cc1OC)-c1c(OC)c(OC)cc3ccnc(c13)C2=O` [Oxoglaucine], in the assay with hepatocytes (setting [2]), the “# of genes having significantly altered expression” value is recorded as 31.
Regarding `COCCOCOc1cc2ccc(-c3ccc(C(=O)O)cc3)cc2cc1C12CC3CC(CC(C3)C1)C2` [CD 2665], the “# of genes having significantly altered expression” value in the assay on hepatocytes is recorded as 1102.

B1: Wnt3a (protein, UniProt P56704 19-352, looked up)
Protein Wnt-3a: SYPIWWSLAVGPQYSSLGSQPILCASIPGLVPKQLRFCRNYVEIMPSVAEGIKIGIQECQHQFRGRRWNCTTVHDSLAIFGPVLDKATRESAFVHAIASAGVAFAVTRSCAEGTAAICGCSSRHQGSPGKGWKWGGCSEDIEFGGMVSREFADARENRPDARSAMNRHNNEAGRQAIASHMHLKCKCHGLSGSCEVKTCWWSQPDFRAIGDFLKDKYDSASEMVVEKHRESRGWVETLRPRYTYFKVPTERDLVYYEASPNFCEPNPETGSFGTRDRTCNVSSHGIDGCDLLCCGRGHNARAERRREKCRCVFHWCCYVSCQECTRVYDVHTCK
On to B1, for which, in the assay on hepatocytes (setting [2]), the “# of genes having significantly altered expression” value came to 1142.

B2: GDF10 (BMP3b) (protein, UniProt P55107 369-478, looked up)
Growth/differentiation factor …: QWDEPRVCSRRYLKVDFADIGWNEWIISPKSFDAYYCAGACEFPMPKIVRPSNHATIQSIVRAVGIIPGIPEPCCVPDKMNSLGVLFLDENRNVVLKVYPNMSVDTCACR
As to B2, in the assay with hepatocytes (setting [2]), the “# of genes having significantly altered expression” value came to 855.

B3: Anti-mullerian hormone (protein, UniProt P03971 452-560, looked up)
Muellerian-inhibiting factor: SAGATAADGPCALRELSVDLRAERSVLIPETYQANNCQGVCGWPQSDRNPRYGNHVVLLLKMQVRGAALARPPCCVPTAYAGKLLISLSEERISAHHVPNMVATECGCR
Take B3: in the assay on hepatocytes (setting [2]), the “# of genes having significantly altered expression” value was 912.

B4: Nodal (protein, UniProt Q96S42 238-347, looked up)
Nodal homolog: HHLPDRSQLCRKVKFQVDFNLIGWGSWIIYPKQYNAYRCEGECPNPVGEEFHPTNHAYIQSLLKRYQPHRVPSTCCAPVKTKPLSMLYVDNGRVLLDHHKDMIVEECGCL
Regarding B4, the “# of genes having significantly altered expression” value with hepatocytes (setting [2]) is 863.

B5: BMP4 (protein, UniProt P12644 293-408, looked up)
Bone morphogenetic protein 4: SPKHHSQRARKKNKNCRRHSLYVDFSDVGWNDWIVAPPGYQAFYCHGDCPFPLADHLNSTNHAIVQTLVNSVNSSIPKACCVPTELSAISMLYLDEYDKVVLKNYQEMVVEGCGCR
Turning to B5, the “# of genes having significantly altered expression” value in the assay on hepatocytes (setting [2]) is 2218.
